In patent US4728638A, “Somatostatine derivatives” (Sandoz Ltd., priority 1985, dated 1988):

Test system: GH-secretion
Assay: GH-secretion inhibiting test: depression of serum GH-levels in the rat (radio-immuno-assay)
Type: in vivo
Conditions: male rats, s.c.
Description: This test is carried out employing male rats. The test-substance is administered at varying, logarithmically staggered doses employing at least 5 rats per dose. 1, 6 and 18 hours after the administration of the test substance blood is taken. The determination of the serum GH-level is effected by radio-immuno-assay. The compounds of formula I are active in this test when administered at a dosage in the range of from 0.01 to 50 μg/kg s.c.

With `C[C@H](N)C(=O)NCC(=O)N[C@H]1CSSC[C@@H](C(=O)O)NC(=O)[C@H](CO)NC(=O)[C@H]([C@@H](C)O)NC(=O)[C@H](Cc2ccccc2)NC(=O)[C@H]([C@@H](C)O)NC(=O)[C@H](CCCCN)NC(=O)[C@H](Cc2c[nH]c3ccccc23)NC(=O)[C@H](Cc2ccccc2)NC(=O)[C@H](Cc2ccccc2)NC(=O)[C@H](CC(N)=O)NC(=O)[C@H](CCCCN)NC1=O` [natural somatostatine, somatostatine] the “ID50 in the GH-secretion inhibiting test after 1 hour” value (blood taken 1 hour after administration) was 0.95 mg/kg and the “ID50 in the GH-secretion inhibiting test after 6 hours” value (blood taken 6 hours after administration) was “extremely high and therefore not determinable”.
